One test has as its target bovine thrombin (Bos taurus, UniProt P00735). The experiment in a line: Chromogenic assay, inhibition of thrombin. The class given is biochemical. On the procedure:
(§1) The inhibition of thrombin, trypsin, plasmin or factor Xa is measured in 96 well plate chromogenic assays. The percentage inhibition and IC50 are calculated from triplicate samples of an 8 concentration dose-response curve. From the substrate Km and IC50, the Ki for each inhibitor is calculated. All assays are carried out in a total incubation of 200 μl of 50 mM HEPES and 150 mM NaCl at pH 8.0, and all compound dilutions are preincubated with enzyme at room temperature for 15 minutes prior to addition of substrate. After 30 minutes incubation at 30° C., the O.D. is measured at […] in a 96 well plate reader. Thrombin activity is measured using bovine thrombin and S2238 (H-D-Phe-Pip-Arg-pNA), bovine pancreatic trypsin is assayed with S2222 (Benz-Isoleu-Glu-Gly-Arg-pNA), bovine plasma plasmin is assayed with Chromozym PL (Tosyl-Giy-Pro-Lys-pNA)and bovine factor Xa is assayed in 50 mM Tris, 150 mM NaCl, pH 7.5 buffer with S2222.

The target of test [1] is T1, bovine pancreatic trypsin (Bos taurus, UniProt P00760).
T1 construct: from tissue; host or cells: bovine pancreas
T1 sequence (P00760 24-246): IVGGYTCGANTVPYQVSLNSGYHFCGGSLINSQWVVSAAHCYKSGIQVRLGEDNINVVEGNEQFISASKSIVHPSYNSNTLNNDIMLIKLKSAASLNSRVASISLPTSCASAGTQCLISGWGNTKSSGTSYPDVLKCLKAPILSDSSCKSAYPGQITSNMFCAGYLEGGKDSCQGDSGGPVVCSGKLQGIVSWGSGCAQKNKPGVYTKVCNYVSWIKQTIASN
Briefly: Chromogenic assay, inhibition of trypsin. The class given is biochemical. Conditions: in vitro, substrate S2222, pH 8.0, 30° C. On the procedure:
as §1
The following Table illustrates the in vitro inhibitory activities against thrombin and trypsin for a range of the compounds of the invention.

Where a name gives a salt, the structure may show the parent alone.

As a reminder, the Ki is a measure of affinity in units of concentration, obtained from inhibition or displacement. Read a low Ki as higher affinity. With `CCN(C1CCCCC1)[C@@H](CC(=O)O)C(=O)N1CCCCC1CCOC1CCN(C(=N)N)CC1` (mixture of isomers) [Example 29, N-(N-Cyclohexyl-N-ethyl-(S)-α-aspartyl)-2(R,S)-[2-(N-amidino-4-piperidyloxy)ethyl]piperidine dihydrochloride], the results for the Ki (at bovine thrombin; in test [1]) were 16 nM and 5000 nM, respectively.

Consider `N=C(N)c1ccc(OCCC2CCCCN2C(=O)[C@H](CC(=O)O)NC2CCCCC2)cc1` (mixture of isomers) [Example 31, N-(N-Cyclohexyl-(S)-α-aspartyl)-2(R,S)-[2-(4-amidinophenoxy)ethyl]piperidine dihydrochloride], for which the values for the Ki (on bovine thrombin; in test [1]) were 45 nM and 1300 nM, respectively.

On to `N=C(N)N1CCC(OCCC2CCCCN2C(=O)[C@H](CC(=O)O)NC2CCCCCCC2)CC1` (mixture of isomers) [Example 16, N-(N-Cyclooctyl-(S)-α-aspartyl)-2(R,S)-[2-(N-amidino-4-piperidyloxy)ethyl]piperidine dihydrochloride], for which, in test [1], the Ki was 720 nM.

Regarding `N=C(N)N1CCC(OCC[C@@H]2CCCCN2C(=O)[C@H](CC(=O)O)NC2CC3CCC2C3)CC1` (stereo partly drawn) [Example 3, N-[N-(2-Norbornyl)-(S)α-aspartyl]-2(S)-[2-(N-amidino-4-piperidyloxy)ethyl]piperidine dihydrochloride], the inhibition constant (Ki) on bovine thrombin came to 4.1 nM; in test [1], 1200 nM.

Regarding `N=C(N)N1CCC(OCCC2CCCCN2C(=O)[C@H](CC(=O)O)NC2CCCCC2O)CC1` (mixture of isomers) [Example 17, N-[N-(2-Hydroxycyclohexyl)-(S)-α-aspartyl]-2(R,S)-[2-(N-amidino-4-Piperidyloxy)ethyl]piperidine bis-trifluoroacetate], the Ki at bovine thrombin was 35 nM; in test [1], 11000 nM.

On to `CN(C1CCCC(C)(C)C1)[C@@H](CC(=O)O)C(=O)N1CCCC[C@H]1CCOC1CCN(C(=N)N)CC1` (stereo partly drawn) [Example 25, N-[N-Methyl-N-(3,3-dimethylcyclohexyl)-(S)-α-aspartyl]-2(S)-[2-(N-amidino-4-piperidyloxy)ethyl]piperidine dihydrochloride], for which the figures for the inhibitory constant (Ki) (at bovine thrombin; in test [1]) were 2 nM and 360 nM, respectively.

Values taken from patent publication US5917034A, “Antithrombotic n-amidinopiperidine and benzamidine derivatives” (Pfizer Inc., priority 1995, dated 1999).
